Measured values: US20170029531A1, “INHIBITION OF LACTATE DEHYDROGENASE 5 (LDH-5) BINDING, INCORPORATION, INTERNALIZATION AND/OR ENDOCYTOSIS TO IMMUNE CELLS” (Seattle Children's Hospital (dba Seattle Children's …, priority 2014, published 2017)

Columns and labels:
primary human NK cells = test: NKG2D expression and CD107a degranulation of primary human NK cells after incubation with LDH or lactate; format: cell-based; conditions: LDH 50 ug/mL or lactate 20 mM; 12 hour (NKG2D, NKp46) or 6 hour after IL-2 (CD107a)
Excerpt: FIG. 2. Biochemical purification of tumor-derived Lactate Dehydrogenase, expression in glioma cell lines and verification of LDH-mediated induction of NKG2D ligands on monocytes. (Panel A) Protein purification strategy. […] of U87 glioblastoma cell line supernatant were subjected to ammonium sulfate precipitation. Active fractions were passed over a phenyl Sepharose column and active fractions were then subjected to size exclusion (Superdex 200), followed by ion exchange (MonoS) before Mass Spectroscopy (MS) analysis. (Panel B) Following separation by chromatography, fractions were dialyzed into PBS and cultured with MHD (healthy monocytes) for 18 hours. Whole cell mRNA was reverse transcribed, and induction of MICB and ULBP-1 was analyzed relative to media alone controls. […] (Panel C) mRNA isolated from PBMC of healthy donors, 293T cells (as negative controls), and U87, U251, and SF767 glioma cell lines were analyzed for expression of LDHA and LDHB by qPCR. (Panel D) A 1:10 dilution of fresh, unfrozen glioblastoma cell line supernatants was analyzed for total LDH enzymatic activity and expressed as OD 495 nm. […] Eighteen hours later, mRNA was isolated and analyzed for MICA, MICB, and ULBP-1 by qPCR. […] Eighteen hours later, mRNA was isolated and analyzed for MICA, MICB and ULBP-1 by qPCR. […] Eighteen hours later, MICB (black bars) and ULBP-1 (gray bars) were measured by qPCR. […]

[1] = test system: glioblastoma cell line U87; test: IL-6 gene expression in glioblastoma cell line U87; format: cell-based
U87 = U87 mitochondrial function and viability after overnight LDH5; format: cell-based
Procedure: FIG. 30. U87 mitochondrial function. […] U87 were treated overnight with LDH5 then with controls 100 uM FCCP (depolarizer) or 200 ng/mL staurosporine (hyperpolarizer) for 10 min. Cells were then loaded with the mitochondrial membrane potential sensitive dye Mitotracker CMXRos for 15 min then fixed in 2% PF. Fluorescence intensity was measured by flow cytometry.
FIG. 31. U87 mitochondrial function. […] U87 were treated overnight with LDH5. Cells were fixed in 2% PF and immunostained with an anti-mitochondrial antibody and phalloidin (actin) Mitochondrial and cell surface area were calculated by Nuance software.
FIG. 32. U87 mitochondrial function. […] U87 were treated overnight with LDH5 then with 200 ng/mL staurosporine for 5 or 24 hours. Cells were then trypsinized, stained with Annexin 594 and analyzed by flow cytometry.
Experimental wells were pulsed with 50 ug/mL LDH-A488 for 24 hours as indicated (control wells received no LDH) at 37° C. Cells were treated for 2 min with 0.5M acetic acid+150 mM NaCl (pH 2.5), followed by 4 subsequent washes in RPMI+10% FBS. […] (See FIGS. 31-32).

[2] = LDH activity after freeze/thaw (colorimetric LDH activity assay); format: physicochemical; conditions: FIG. 12
Procedure: Supernatants and patient sera were analyzed for LDH enzymatic activity using a commercially available colorimetric assay according to the manufacturer's instructions (Sigma-Aldrich). Standard curves were generated using purified native LDH5.

[3] = U87 treated overnight with LDH5

**Q.** With “LDH5: purified native lactate dehydrogenase isoenzyme 5, alpha only tetramer; fluorescently labeled in uptake tests” as the substance, how does the “NK cell NKG2D expression or degranulation” value (primary human NK cells) read?
**A.** Its value is “neither lactate nor LDH-5 alone directly impacted”.

**Q.** What about the IL-6 gene expression [1] of the same substance?
**A.** Its IL-6 gene expression is “induces IL-6 gene expression”.

**Q.** What about the “Viability / staurosporine induced apoptosis (Annexin)” value (U87; U87 overnight LDH5, then 200 ng/mL staurosporine for 5 or 24 hours) of the same substance?
**A.** Its value is “does not reduce viability, nor rescue from staurosporine induced apoptosis”.

**Q.** What about the “Mitochondrial membrane potential (Mitotracker CMXRos)” value (U87; [3]) of the same substance?
**A.** The value was “depolarizes mitochondrial membrane”.

**Q.** And the Mitochondrial surface area (U87; [3])?
**A.** The Mitochondrial surface area was “does not change”.

**Q.** And the “LDH-5 activity following freeze/thaw” value [2]?
**A.** The value was “significantly reduced”.
